Target: wild-type human GLP-1R (Homo sapiens, UniProt P43220)
Assay: GLP-1R Cell Assay 1 (cAMP Hunter CHO-K1 GLP1R Gs cell line, HitHunter cAMP assay)
Format: cell-based
Conditions: agonist activity, cellular cAMP, CHO-K1 overexpressing human GLP-1R; normalized to Exendin-4; Table 3; no stereo designation = tested as mixture of stereoisomers
Procedure: GLP-1R mediated agonist activity was determined using the cAMP Hunter CHO-K1 GLP1R Gs cell line (DiscoverX, cat #95-0062C2), a stable CHO-K1 derived cell lines overexpressing naturally Gs coupled wild-type human GLP-1R (accession number: NM_002062.3). GLP-1R agonism in this cell line was detected by measuring cellular cAMP levels using the HitHunter cAMP assay kit (cat #90-0075SM2), a homogenous, gain-of-signal competitive immune assay based on Enzyme Fragment Complementation (EFC) technology. In this system cellular cAMP competes with exogenous labeled cAMP (ED-cAMP) for binding to an anti-cAMP antibody. […] The luminescent signal is directly proportional to the amount of cellular cAMP.
For compound testing, cells were seeded in a total volume of 20 μL in white walled, 384-well microplates and incubated at 37° C. prior to compound testing. Prior to compound addition, cell culture media was removed by aspiration and replaced with 15 μL reagent buffer (2:1 HBSS/10 mM HEPES: cAMP XS+Ab reagent). […] Microplates were read on a PerkinElmer Envision instrument. Compound activity was analyzed using CBIS data analysis suite (ChemInnovation). Percent activity was calculated based on duplicate assay runs and normalized to the positive control Exendin-4, a GLP-1R peptide agonist, using the following formula: […]

Sequence of wild-type human GLP-1R (P43220 24-463): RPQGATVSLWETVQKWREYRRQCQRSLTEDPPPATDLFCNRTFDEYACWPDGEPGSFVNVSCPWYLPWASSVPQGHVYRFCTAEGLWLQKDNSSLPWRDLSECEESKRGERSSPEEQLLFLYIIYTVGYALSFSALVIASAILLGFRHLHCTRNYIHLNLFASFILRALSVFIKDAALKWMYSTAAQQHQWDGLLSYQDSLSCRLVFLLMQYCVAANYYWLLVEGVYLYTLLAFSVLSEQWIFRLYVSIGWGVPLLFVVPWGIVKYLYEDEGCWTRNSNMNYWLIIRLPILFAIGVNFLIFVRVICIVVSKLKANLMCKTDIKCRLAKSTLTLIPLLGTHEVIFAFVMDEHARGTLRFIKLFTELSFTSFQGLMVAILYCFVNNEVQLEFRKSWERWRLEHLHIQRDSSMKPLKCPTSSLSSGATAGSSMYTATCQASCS

CCn1cncc1Cn1c(CN2CC[C@]3(c4cccnc4OCc4ccc(C#N)cc4F)C[C@@H]3C2)nc2ccc(C(=O)O)cc21 (single isomer, unassigned) [Compound 166, 2-((6-(2-((4-cyano-2-fluorobenzyl)oxy)pyridin-3-yl)-3-azabicyclo[4.1.0]heptan-3-yl)methyl)-1-((1-ethyl-1H-imidazol-5-yl)methyl)-1H-benzo[d]imidazole-6-carboxylic acid]
EC50: 59.4 nM
